Experimental data as given in the CheMixHub drug solubility set.

Experiment: xn = mol fraction of the nth substance listed, in the solute-free solvent

c1ccc2[nH]c(-c3cscn3)nc2c1 + CCCO + O
solubility (g/100 g solution)
Conditions | 283.15 K | 288.15 K | 293.15 K | 298.15 K | 303.15 K | 308.15 K | 313.15 K | 318.15 K | 323.15 K
x2 = 0.03225 | 0.00325 | 0.00407 | 0.00514 | 0.00634 | 0.00789 | 0.00974 | 0.0118 | 0.0143 | 0.0173
x2 = 0.06974 | 0.0139 | 0.017 | 0.021 | 0.0263 | 0.0319 | 0.0383 | 0.0458 | 0.0545 | 0.0646
x2 = 0.1139 | 0.0334 | 0.0402 | 0.0487 | 0.0585 | 0.0703 | 0.0828 | 0.0976 | 0.116 | 0.136
x2 = 0.1666 | 0.0767 | 0.09 | 0.106 | 0.122 | 0.142 | 0.162 | 0.188 | 0.212 | 0.242
x2 = 0.2307 | 0.141 | 0.163 | 0.188 | 0.216 | 0.249 | 0.284 | 0.321 | 0.365 | 0.413
x2 = 0.3103 | 0.21 | 0.243 | 0.282 | 0.322 | 0.367 | 0.415 | 0.47 | 0.525 | 0.592
x2 = 0.4117 | 0.291 | 0.331 | 0.38 | 0.435 | 0.497 | 0.563 | 0.633 | 0.707 | 0.794
x2 = 0.5454 | 0.37 | 0.423 | 0.483 | 0.545 | 0.62 | 0.699 | 0.785 | 0.879 | 0.983
x2 = 0.7297 | 0.425 | 0.482 | 0.553 | 0.623 | 0.708 | 0.79 | 0.883 | 0.986 | 1.1

CC(C)=CCCC(C)C1CCC2(C)C3=C(CCC12C)C1(C)CCC(O)C(C)(C)C1CC3 (configuration not stated) + CCO + O
solubility (g/100 g solution)
Conditions | 278.15 K | 288.15 K | 298.15 K | 308.15 K | 318.15 K
x2 = 0.01604 | 3.88e-05 | 6.47e-05 | 0.000106 | 0.000176 | 0.000263
x2 = 0.1154 | 0.000122 | 0.000181 | 0.000283 | 0.000357 | 0.000444
x2 = 0.3147 | 0.000276 | 0.000461 | 0.000699 | 0.00134 | 0.00191
x2 = 0.7415 | 0.245 | 0.366 | 0.512 | 0.754 | 0.839

CC(C)OC(=O)C(C)NP(=O)(OCC1OC(n2ccc(=O)[nH]c2=O)C(C)(F)C1O)Oc1ccccc1 (configuration not stated) + CCO + O
solubility (g/100 g solution)
Conditions | 278.15 K | 283.15 K | 288.15 K | 293.15 K | 298.15 K | 303.15 K | 308.15 K | 313.15 K | 318.15 K
x2 = 0.04165 | 0.327 | 0.484 | 0.653 | 0.882 | 1.17 | 1.57 | 2.08 | 2.71 | 3.42
x2 = 0.08908 | 1.42 | 2.02 | 2.65 | 3.46 | 4.44 | 5.7 | 7.2 | 9.04 | 10.9
x2 = 0.1436 | 3.58 | 4.78 | 6.12 | 7.78 | 9.72 | 12.1 | 14.7 | 17.7 | 21
x2 = 0.2068 | 5.74 | 7.67 | 9.66 | 12 | 14.8 | 17.8 | 21.3 | 25.1 | 29
x2 = 0.2812 | 7.44 | 9.76 | 12.2 | 14.9 | 18.1 | 21.6 | 25.5 | 29.7 | 33.9
x2 = 0.3698 | 9.07 | 11.6 | 14.4 | 17.3 | 20.7 | 24.9 | 29 | 33.2 | 37.7
x2 = 0.4772 | 11 | 13.7 | 16.6 | 20.2 | 24.2 | 28.3 | 32.5 | 36.8 | 41.3
x2 = 0.6101 | 13.9 | 17 | 20.8 | 24.3 | 28.5 | 32.3 | 37.2 | 41.6 | 46.3
x2 = 0.7788 | 17.6 | 20.9 | 24.6 | 28.8 | 33.3 | 37.8 | 42.4 | 47 | 51.6

COc1cc2c(cc1OC)-c1cc3ccc(OC)c(OC)c3c[n+]1CC2.[Cl-] + CCO + O
solubility (g/100 g solution)
Conditions | 283.15 K | 288.15 K | 293.15 K | 298.15 K | 303.15 K | 308.15 K | 313.15 K | 318.15 K | 323.15 K | 328.15 K
x2 = 0.04165 | 1.22 | 1.49 | 1.87 | 2.33 | 2.87 | 3.46 | 4.17 | 4.96 | 5.87 | 6.89
x2 = 0.08908 | 1.26 | 1.54 | 1.93 | 2.4 | 2.94 | 3.56 | 4.28 | 5.08 | 6.01 | 7.05
x2 = 0.1436 | 1.34 | 1.62 | 2.03 | 2.52 | 3.14 | 3.77 | 4.52 | 5.34 | 6.28 | 7.33
x2 = 0.2068 | 1.44 | 1.74 | 2.17 | 2.68 | 3.27 | 3.94 | 4.73 | 5.59 | 6.6 | 7.72
x2 = 0.2812 | 1.57 | 1.89 | 2.37 | 2.96 | 3.58 | 4.32 | 5.15 | 6.02 | 7.08 | 8.21
x2 = 0.3698 | 1.72 | 2.06 | 2.54 | 3.13 | 3.8 | 4.55 | 5.44 | 6.39 | 7.51 | 8.77
x2 = 0.4772 | 1.88 | 2.23 | 2.75 | 3.38 | 4.16 | 5.02 | 5.95 | 6.91 | 8.09 | 9.31
x2 = 0.6101 | 2.02 | 2.39 | 2.94 | 3.6 | 4.33 | 5.16 | 6.14 | 7.16 | 8.39 | 9.76
x2 = 0.7788 | 2.11 | 2.48 | 3.08 | 3.79 | 4.53 | 5.41 | 6.4 | 7.47 | 8.65 | 9.96
